Measured values as given in publication PMC10447267, “Assessment of the potential of the MET inhibitor tepotinib to affect the pharmacokinetics of CYP3A4 and P-gp substrates” (Investigational New Drugs, 2023).
Where two headings read alike, the source gives them in different places.

Tests used:
[1] = substance not given, taken as tepotinib; ref the healthcare business of Merck KGaA, Darmstadt, Germany, data on file; cited from earlier work
P-gp = P-gp (Homo sapiens, UniProt P08183); experiment: Study 2 (NCT03492437): effect of tepotinib on dabigatran pharmacokinetics in healthy participants; assay type: in vivo; settings: clinical; tepotinib 500 mg QD
Chain of P-gp (P08183 whole entry): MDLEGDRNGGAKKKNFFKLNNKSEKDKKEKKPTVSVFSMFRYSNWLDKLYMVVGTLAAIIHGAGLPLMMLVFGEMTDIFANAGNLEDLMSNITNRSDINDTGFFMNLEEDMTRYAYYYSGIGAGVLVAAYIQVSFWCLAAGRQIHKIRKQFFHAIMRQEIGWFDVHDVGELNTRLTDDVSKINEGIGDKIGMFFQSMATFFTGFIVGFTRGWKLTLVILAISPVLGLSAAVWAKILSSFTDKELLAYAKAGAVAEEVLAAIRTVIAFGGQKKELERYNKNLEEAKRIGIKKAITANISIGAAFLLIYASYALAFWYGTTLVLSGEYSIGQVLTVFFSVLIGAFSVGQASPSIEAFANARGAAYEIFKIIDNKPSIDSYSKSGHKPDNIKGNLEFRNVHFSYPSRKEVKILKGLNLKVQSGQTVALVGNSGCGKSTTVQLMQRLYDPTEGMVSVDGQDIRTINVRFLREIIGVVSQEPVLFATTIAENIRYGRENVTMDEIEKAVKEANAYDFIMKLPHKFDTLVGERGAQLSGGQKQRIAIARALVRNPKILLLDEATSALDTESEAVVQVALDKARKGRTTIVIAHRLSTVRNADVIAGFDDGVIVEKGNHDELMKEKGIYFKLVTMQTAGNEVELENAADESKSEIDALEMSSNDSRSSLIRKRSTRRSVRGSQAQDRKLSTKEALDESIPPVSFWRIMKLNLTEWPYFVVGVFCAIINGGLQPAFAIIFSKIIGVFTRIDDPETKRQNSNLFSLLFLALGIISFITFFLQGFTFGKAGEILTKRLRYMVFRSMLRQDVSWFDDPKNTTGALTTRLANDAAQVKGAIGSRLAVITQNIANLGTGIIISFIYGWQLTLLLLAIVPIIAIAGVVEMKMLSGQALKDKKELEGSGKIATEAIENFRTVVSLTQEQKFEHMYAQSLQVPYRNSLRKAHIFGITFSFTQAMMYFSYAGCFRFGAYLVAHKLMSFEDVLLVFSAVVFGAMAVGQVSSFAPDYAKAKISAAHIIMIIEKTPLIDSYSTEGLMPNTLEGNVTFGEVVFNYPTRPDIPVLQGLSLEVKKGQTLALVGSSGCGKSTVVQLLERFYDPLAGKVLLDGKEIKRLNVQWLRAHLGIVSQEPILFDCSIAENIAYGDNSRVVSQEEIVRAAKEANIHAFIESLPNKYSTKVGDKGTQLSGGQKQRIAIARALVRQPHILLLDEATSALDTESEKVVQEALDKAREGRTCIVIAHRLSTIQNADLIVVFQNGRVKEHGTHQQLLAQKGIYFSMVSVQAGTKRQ
Description: Study 1 (NCT03628339) and Study 2 (NCT03492437) were both Phase 1, open-label, single sequence, 2-period studies in 12 and 20 healthy participants, respectively (Fig. 1).
In Period 2 (Days 4 to 14), participants received 500 mg tepotinib QD on Days 4 to 11. […] Blood samples for trough concentrations of tepotinib were collected on Days 9 and 10. Further blood samples for tepotinib and its metabolites were also collected up to 24 h postdose on Day 10.
Parameters included maximum plasma concentration (Cmax) and time to reach Cmax (Tmax) taken directly from the observed data. Area under the plasma concentration–time curve (AUC) from time 0 to the last measured concentration (AUC0-t), AUC over the dose interval (AUCtau) and AUC extrapolated to infinity (AUC0-∞) were calculated using the mixed log/linear trapezoidal rule. Terminal elimination half-life (t1/2) was calculated as ln(2)/λz where λz is the terminal rate constant. The primary pharmacokinetic parameters in both studies were Cmax, AUC0-t and AUC0-∞.
A similar statistical approach was taken for both studies. […] Point estimates and CIs were back-transformed to the original scale.

CYP1A2 = molecular target: T1, CYP1A2 (Homo sapiens, UniProt P05177); experiment: CYP1A2 inhibition in pooled human liver microsomes; assay type: in vitro ADME; settings: for inhibition at 49.5 µM: both sexes, human, microsomes
T1 construct: pooled mixed-gender human liver microsomes; from tissue; host or cells: pooled mixed-gender human liver microsomes
T1 sequence (P05177 1-516): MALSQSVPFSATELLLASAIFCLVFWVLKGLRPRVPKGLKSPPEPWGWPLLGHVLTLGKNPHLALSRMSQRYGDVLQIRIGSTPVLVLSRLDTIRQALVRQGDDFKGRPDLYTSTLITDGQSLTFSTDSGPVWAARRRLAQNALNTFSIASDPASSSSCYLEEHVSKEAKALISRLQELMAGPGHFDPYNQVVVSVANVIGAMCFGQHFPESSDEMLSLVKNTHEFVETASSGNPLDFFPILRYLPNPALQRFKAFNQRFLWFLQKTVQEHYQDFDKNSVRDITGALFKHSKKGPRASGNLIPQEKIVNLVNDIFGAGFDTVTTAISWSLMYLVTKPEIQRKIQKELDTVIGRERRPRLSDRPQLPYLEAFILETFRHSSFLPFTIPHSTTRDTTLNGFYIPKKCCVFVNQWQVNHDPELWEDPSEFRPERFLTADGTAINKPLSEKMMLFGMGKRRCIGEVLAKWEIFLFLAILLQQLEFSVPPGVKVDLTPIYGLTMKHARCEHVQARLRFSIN
Description: (§1) The potential of tepotinib and MSC2571109A to inhibit CYP450 enzymes CYP1A2, 2A6, 2B6, 2C8, 2C9, 2C19, 2D6, 2E1, and 3A4/5 in vitro was evaluated using CYP-catalyzed reactions in pooled mixed-gender human liver microsomes using specific substrates and liquid chromatography/tandem mass spectrometry (LC–MS/MS) readouts. […] Testosterone 6β-hydroxylation was assessed in the MSC2571109A study. Assessments of mechanism-based inhibition of the above listed CYP450 enzymes were conducted after pre-incubation of the microsomes with tepotinib or MSC2571109A. A brief summary of the incubation methods, including details of substrates used for the other CYP enzymes (which are not pertinent to this article) are presented in Online Resource 1. The LC–MS/MS-based methods used were consistent with those previously described in the literature.

CYP2C9 = molecular target: T2, CYP2C9 (Homo sapiens, UniProt P11712); experiment: CYP2C9 inhibition in pooled human liver microsomes; assay type: in vitro ADME; settings: for inhibition at 49.5 µM: both sexes, human, pooled human liver microsomes, probe diclofenac
T2 construct: pooled mixed-gender human liver microsomes; from tissue; host or cells: pooled mixed-gender human liver microsomes
T2 sequence (P11712 whole entry): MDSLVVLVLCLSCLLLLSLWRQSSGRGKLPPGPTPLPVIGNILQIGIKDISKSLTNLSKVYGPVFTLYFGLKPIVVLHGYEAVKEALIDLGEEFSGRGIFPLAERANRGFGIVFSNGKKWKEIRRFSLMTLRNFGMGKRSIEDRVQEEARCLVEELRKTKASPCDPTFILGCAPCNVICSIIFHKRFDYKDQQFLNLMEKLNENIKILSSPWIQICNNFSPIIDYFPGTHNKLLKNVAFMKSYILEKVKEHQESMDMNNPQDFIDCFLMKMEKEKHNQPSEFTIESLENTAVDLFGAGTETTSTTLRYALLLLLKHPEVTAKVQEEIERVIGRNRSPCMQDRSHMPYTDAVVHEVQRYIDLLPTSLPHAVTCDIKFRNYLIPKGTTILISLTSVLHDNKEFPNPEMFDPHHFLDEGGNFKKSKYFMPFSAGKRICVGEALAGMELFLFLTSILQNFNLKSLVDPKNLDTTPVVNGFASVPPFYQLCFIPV
Description: as §1

CYP2C8 = molecular target: T3, CYP2C8 (Homo sapiens, UniProt P10632); experiment: CYP2C8 inhibition in pooled human liver microsomes; assay type: in vitro ADME; settings: Amodiaquine N-dealkylation
T3 sequence (P10632 1-490): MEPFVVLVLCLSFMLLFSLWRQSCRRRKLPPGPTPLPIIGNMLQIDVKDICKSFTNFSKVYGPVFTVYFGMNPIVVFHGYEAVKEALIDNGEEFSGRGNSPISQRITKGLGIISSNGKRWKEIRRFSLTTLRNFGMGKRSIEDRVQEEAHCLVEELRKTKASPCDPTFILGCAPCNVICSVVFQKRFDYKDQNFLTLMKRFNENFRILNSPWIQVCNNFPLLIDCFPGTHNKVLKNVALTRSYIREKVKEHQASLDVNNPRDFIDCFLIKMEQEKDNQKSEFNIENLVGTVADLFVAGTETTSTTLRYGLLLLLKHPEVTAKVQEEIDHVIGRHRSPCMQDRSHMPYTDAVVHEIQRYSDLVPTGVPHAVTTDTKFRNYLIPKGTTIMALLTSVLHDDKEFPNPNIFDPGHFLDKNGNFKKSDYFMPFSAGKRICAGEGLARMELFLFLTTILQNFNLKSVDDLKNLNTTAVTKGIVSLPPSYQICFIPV
Description: as §1

CYP2B6 = molecular target: T4, CYP2B6 (Homo sapiens, UniProt P20813); experiment: CYP2B6 inhibition in pooled human liver microsomes; assay type: in vitro ADME; settings: Efavirenz 8-hydroxylation; for inhibition at 49.5 µM: both sexes, human, pooled human liver microsomes, probe efavirenz
T4 construct: pooled mixed-gender human liver microsomes; from tissue; host or cells: pooled mixed-gender human liver microsomes
T4 sequence (P20813 1-491): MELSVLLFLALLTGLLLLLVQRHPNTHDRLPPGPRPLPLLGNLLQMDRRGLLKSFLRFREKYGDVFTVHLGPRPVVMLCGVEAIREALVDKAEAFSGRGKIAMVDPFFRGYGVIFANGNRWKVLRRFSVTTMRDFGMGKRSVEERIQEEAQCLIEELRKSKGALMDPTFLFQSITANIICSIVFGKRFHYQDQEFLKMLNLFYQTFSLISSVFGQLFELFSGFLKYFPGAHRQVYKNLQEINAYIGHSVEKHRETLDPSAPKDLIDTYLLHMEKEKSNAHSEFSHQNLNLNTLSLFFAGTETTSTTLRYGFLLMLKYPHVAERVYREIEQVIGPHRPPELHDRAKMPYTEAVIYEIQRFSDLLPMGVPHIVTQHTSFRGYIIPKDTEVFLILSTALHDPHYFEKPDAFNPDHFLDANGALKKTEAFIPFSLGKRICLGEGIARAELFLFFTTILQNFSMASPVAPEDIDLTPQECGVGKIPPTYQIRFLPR
Description: as §1

[2] = 30-min preincubation, read-out: Time-dependent inhibition IC50
[3] = human liver microsomes, zero-minute preincubation, read-out: Direct inhibition IC50

CN1CCC(COc2cnc(-c3cccc(Cn4nc(-c5cccc(C#N)c5)ccc4=O)c3)nc2)CC1 [tepotinib]
Geometric mean free Cmax [1]: 52.4 nM
Inhibition of P-gp-mediated efflux transport of dabigatran etexilate (in words) (P-gp): weak inhibitor
IC50 (CYP1A2): > 49.5 µM
Potential for time-dependent inhibition (CYP1A2; Phenacetin O-dealkylation): Little or No
inhibition at 49.5 µM (CYP1A2; Phenacetin O-dealkylation, 30-min preincubation, read-out: Time-dependent inhibition, maximum inhibition at 49.5 µM): 26%
inhibition at 49.5 µM (CYP1A2; Phenacetin O-dealkylation, zero-minute preincubation, read-out: Direct inhibition, maximum inhibition at 49.5 µM): 11%
IC50 (CYP1A2; read-out: Time-dependent inhibition IC50, Phenacetin O-dealkylation, 30-min preincubation): > 49.5 µM
Potential for time-dependent inhibition (CYP2C9; Diclofenac 4-hydroxylation): Little or No
IC50 (CYP2C9; Diclofenac 4-hydroxylation, 30-min preincubation, read-out: Time-dependent inhibition IC50): 23 µM
inhibition at 49.5 µM (CYP2C9; Diclofenac 4-hydroxylation, 30-min preincubation, read-out: Time-dependent inhibition, maximum inhibition at 49.5 µM): 52%
inhibition at 49.5 µM (CYP2C9; Diclofenac 4-hydroxylation, zero-minute preincubation, read-out: Direct inhibition, maximum inhibition at 49.5 µM): 58%
IC50 (CYP2C9; human liver microsomes, Diclofenac 4-hydroxylation, zero-minute preincubation, read-out: Direct inhibition IC50): 27 µM
Ki (CYP2C9; human liver microsomes, direct inhibition, read-out: Ki, CYP2C9-catalyzed probe substrate reaction): ≥ 11 µM
Potential for time-dependent inhibition (CYP2C8): Little or No
IC50 (CYP2C8; [2]): 13 µM
Type of inhibition (CYP2C8; direct inhibition): Mixed
inhibition at 49.5 µM (CYP2C8; both sexes, human, pooled human liver microsomes, probe amodiaquine, zero-minute preincubation, 49.5 µM, read-out: Direct inhibition, maximum inhibition at 49.5 µM): 86%
Ki (CYP2C8; human liver microsomes, read-out: Direct inhibition Ki): 11 µM
IC50 (CYP2C8; [3]): 16 µM
Potential for time-dependent inhibition (CYP2B6): Little or No
IC50 (CYP2B6; [2]): 44 µM
inhibition at 49.5 µM (CYP2B6; 30-min preincubation, read-out: Time-dependent inhibition, maximum inhibition at 49.5 µM): 52%
inhibition at 49.5 µM (CYP2B6; zero-minute preincubation, read-out: Direct inhibition, maximum inhibition at 49.5 µM): 34%
IC50 (CYP2B6; [3]): > 49.5 µM
